Reference: patent US20230172207A1 (BASF SE, priority 2020, published 2023)
Read-outs that look alike come from different tables or passages of the source.

Legend:
[1] = system: Septoria tritici; experiment: Micro titer plate test against Septoria tritici causing leaf blotch on wheat (SEPTTR); format: cell-based; details: 0.25 ppm
[2] = system: Phakopsora pachyrhizi (F129L); experiment: Protective control of soybean rust on soybeans (PHAKPA P2); format: in vivo; details: for % PHAKPA (F129L) Disease level, P2 at 4 ppm: protective P2, 4 ppm; for % PHAKPA (F129L) Disease level, P2 at 16 ppm: protective P2, 16 ppm
[3] = system: Phakopsora pachyrhizi (F129L); experiment: Protective control of soybean rust on soybeans (PHAKPA P6); format: in vivo; details: for % PHAKPA (F129L) Disease level, P6 at 4 ppm: protective P6, 4 ppm; for % PHAKPA (F129L) Disease level, P6 at 16 ppm: protective P6, 16 ppm
[4] = system: Leptosphaeria nodorum; experiment: Micro titer plate test against Leptosphaeria nodorum causing wheat leaf spots (LEPTNO); format: cell-based
[5] = system: Alternaria solani (F129L); experiment: Micro titer plate test against Alternaria solani causing early blight (ALTESO F129L); format: cell-based; details: relative growth vs compound-free control (100%), 7 days
[6] = system: Colletotrichum orbiculare; experiment: Micro titer plate test against Colletotrichum orbiculare causing anthracnose (COLLLA); format: cell-based
[7] = system: Microdochium nivale; format: cell-based
[8] = system: Pyricularia oryzae; experiment: microbe, parasite or virus in culture; format: cell-based; details: 0.016 ppm, relative growth vs compound-free control (100%), 7 days
[9] = system: Alternaria solani (wt); experiment: microbe, parasite or virus in culture; format: cell-based
[10] = system: Pyrenophora teres (F129L); experiment: Micro titer plate test against Pyrenophora teres causing net blotch on barley (PYRNTE F129L); format: cell-based; details: 0.25 ppm, relative growth vs compound-free control (100%), 7 days
[11] = system: Pyrenophora teres (wt); experiment: Micro titer plate test against Pyrenophora teres causing net blotch on barley (PYRNTE wt); format: cell-based
[12] = relative growth vs compound-free control (100%), 7 days
[13] = protective, inoculation 2 days after spraying, % diseased leaf area
[14] = protective, inoculation six days after spraying, % diseased leaf area

CNC(=O)/C(=N/OC)c1cccc(C)c1CO/N=C(\OC)c1cccc(C(F)(F)F)c1
Fungal growth (%) SEPTTR [1, 12]: 77%

CO/N=C(/C(=O)OC)c1cccc(C)c1CO/N=C(\C)c1ccccc1F [Ex. 1]
PHAKPA (F129L) Disease level (%) P2 at 16 ppm [2, 13]: 28% | % PHAKPA (F129L) Disease level, P2 at 4 ppm ([2]; soybean rust F129L): 80% | % PHAKPA (F129L) Disease level, P2 at 16 ppm ([2]; soybean rust F129L): 27% | PHAKPA (F129L) Disease level (%) P6 at 16 ppm [3, 14]: 47% | % PHAKPA (F129L) Disease level, P6 at 4 ppm ([3]; soybean rust F129L): 90% | % PHAKPA (F129L) Disease level, P6 at 16 ppm ([3]; soybean rust F129L): 56%

CNC(=O)/C(=N/OC)c1cccc(C)c1CO/N=C(\C)c1cccc(C(F)(F)F)c1 [compound 8]
Fungal growth (%) LEPTNO ([4]; 0.063 ppm, relative growth vs compound-free control (100%), 7 days): 70% | Fungal growth (%) ALTESO F129L ([5]; 0.016 ppm, listed as Ex. 8): 52% | PHAKPA (F129L) Disease level (%) P6 at 4 ppm ([3]; 4 ppm, protective, inoculation six days after spraying, % diseased leaf area): 13% | % PHAKPA (F129L) Disease level, P6 at 4 ppm [3]: 1%

CO/N=C(/C(=O)OC)c1cccc(C)c1CO/N=C(\C)c1cccc(C(F)(F)F)c1 [compound 9]
PHAKPA (F129L) Disease level (%) P6 at 16 ppm [3, 14]: 4% | % PHAKPA (F129L) Disease level, P6 at 16 ppm [3]: 1%

CO/N=C(/C(=O)OC)c1cccc(C)c1CO/N=C(\C)c1cccc(OC(F)(F)F)c1 [compound 28]
PHAKPA (F129L) Disease level (%) P2 at 16 ppm [2, 13]: 30% | % PHAKPA (F129L) Disease level, P2 at 16 ppm ([2]; soybean rust F129L): 0% | PHAKPA (F129L) Disease level (%) P6 at 16 ppm [3, 14]: 18% | % PHAKPA (F129L) Disease level, P6 at 16 ppm ([3]; soybean rust F129L): 0%

CO/N=C(/C(=O)OC)c1cccc(C)c1CO/N=C(\C)c1cccc(C)c1 [compound 76]
% PHAKPA (F129L) Disease level, P2 at 4 ppm [2]: 35% | Fungal growth (%) SEPTTR [1, 12]: 0% | PHAKPA (F129L) Disease level (%) P6 at 16 ppm [3, 14]: 0% | % PHAKPA (F129L) Disease level, P6 at 16 ppm [3]: 4%

CNC(=O)/C(=N/OC)c1cccc(C)c1CO/N=C(\C)c1cccc(C)c1 [compound 77]
Fungal growth (%) SEPTTR [1]: 49% | Fungal growth (%) COLLLA ([6]; 0.063 ppm): 39%

CNC(=O)/C(=N/OC)c1cccc(C)c1CO/N=C(\C)c1cc(F)cc(F)c1 [compound 84]
Fungal growth (%) MONGNI [7]: 32% | Fungal growth (%) PYRIOR [8]: 48% | Fungal growth (%) ALTESO wt [9]: 43% | Fungal growth (%) LEPTNO [4]: 60% | % PHAKPA (F129L) Disease level, P2 at 4 ppm ([2]; soybean rust F129L): 0% | % PHAKPA (F129L) Disease level, P2 at 16 ppm ([2]; soybean rust F129L): 0% | Fungal growth (%) ALTEO F129L ([5]; 4 ppm): 39% | % PHAKPA (F129L) Disease level, P6 at 4 ppm ([3]; soybean rust F129L): 0% | % PHAKPA (F129L) Disease level, P6 at 16 ppm ([3]; soybean rust F129L): 0% | Fungal growth (%) PYRNTE F129L [10]: 49% | Fungal growth (%) PYRNTE wt [11]: 39% | Fungal growth (%) COLLLA [6]: 33%

CNC(=O)/C(=N/OC)c1cccc(C)c1CO/N=C(\C)c1ccccc1C [compound 127]
% PHAKPA (F129L) Disease level, P2 at 4 ppm ([2]; soybean rust F129L): 90% | % PHAKPA (F129L) Disease level, P2 at 16 ppm ([2]; soybean rust F129L): 44% | % PHAKPA (F129L) Disease level, P6 at 4 ppm ([3]; soybean rust F129L): 93% | % PHAKPA (F129L) Disease level, P6 at 16 ppm ([3]; soybean rust F129L): 62%

CO/N=C(/C(=O)OC)c1cccc(C)c1CO/N=C(\C)c1cccc(Cl)c1 [compound 153]
Fungal growth (%) LEPTNO ([4]; 0.063 ppm): 55% | % PHAKPA (F129L) Disease level, P2 at 4 ppm [2]: 19% | Fungal growth (%) SEPTTR [1]: 0% | PHAKPA (F129L) Disease level (%) P6 at 16 ppm [3, 14]: 1% | % PHAKPA (F129L) Disease level, P6 at 16 ppm [3]: 5% | Fungal growth (%) PYRNTE wt ([11]; 0.25 ppm): 31% | Fungal growth (%) COLLLA ([6]; 0.063 ppm): 55%

CNC(=O)/C(=N/OC)c1cccc(C)c1CO/N=C(\C)c1cccc(Cl)c1 [compound 157]
PHAKPA (F129L) Disease level (%) P2 at 4 ppm ([2]; 4 ppm, protective, inoculation 2 days after spraying, % diseased leaf area): 0% | % PHAKPA (F129L) Disease level, P2 at 4 ppm [2]: 1% | Fungal growth (%) SEPTTR [1]: 20% | % PHAKPA (F129L) Disease level, P6 at 16 ppm [3]: 1% | Fungal growth (%) PYRNTE wt ([11]; 0.25 ppm): 54% | Fungal growth (%) COLLLA ([6]; 0.063 ppm): 63%

CNC(=O)/C(=N/OC)c1cccc(C)c1CO/N=C(\CC(F)(F)F)c1ccc(F)cc1C [compound 394]
% PHAKPA (F129L) Disease level, P2 at 4 ppm [2]: 9% | % PHAKPA (F129L) Disease level, P2 at 16 ppm [2]: 3% | % PHAKPA (F129L) Disease level, P6 at 4 ppm [3]: 12% | % PHAKPA (F129L) Disease level, P6 at 16 ppm [3]: 2%

C=Cc1cccc(/C(=N\OC)C(=O)NC)c1CO/N=C(\C)c1ccccc1 [compound 400]
% PHAKPA (F129L) Disease level, P2 at 4 ppm [2]: 2% | % PHAKPA (F129L) Disease level, P2 at 16 ppm [2]: 0% | % PHAKPA (F129L) Disease level, P6 at 4 ppm [3]: 8% | % PHAKPA (F129L) Disease level, P6 at 16 ppm [3]: 0%

CNC(=O)/C(=N/OC)c1cccc(C)c1CO/N=C(\C)c1c(Cl)cc(Cl)cc1OC(F)(F)F [compound 428]
% PHAKPA (F129L) Disease level, P2 at 4 ppm [2]: 70% | % PHAKPA (F129L) Disease level, P2 at 16 ppm [2]: 11% | % PHAKPA (F129L) Disease level, P6 at 4 ppm [3]: 83% | % PHAKPA (F129L) Disease level, P6 at 16 ppm [3]: 20%

CO/N=C(/C(=O)OC)c1cccc(C)c1CO/N=C(\SC)c1cccc(C)c1 [drawing 952]
Fungal growth (%) SEPTTR [1, 12]: 61%

CO/N=C(/C(=O)OC)c1cccc(C)c1CO/N=C(/c1cccc(C)c1)C1CC1 [drawing 953]
Fungal growth (%) SEPTTR [1, 12]: 89%
